Experiment [1] has as its target dopaminergic (D2) receptors (Rattus norvegicus, UniProt P61169). The experiment can be described thus: biochemical. It is filed as binding. The settings on record: striatal rat brain homogenates, ^3H-spiperone, 37° C., 15 minutes; read-out: 3H-Spiperone Displacement IC50. As for the experimental part:
Rats (150±10 g; Charles River) were decapitated, the corpus striatum dissected out and frozen on dry ice. The tissues were pooled and stored at -80° C. until used. Homogenates (Brinkmann Polytron) of the corpus striatum in cold HEPES.KOH buffer (final pH=7.4) were centrifuged at 39,000×G. The supernatant was discarded and the pellets were re-suspended in HEPES.KOH buffer and re-centrifuged as above.
Tests to determine the Inhibitory Concentration50 (IC50) of the compounds of Formula I and reference compounds versus ^3 H-spiperone were conducted as follows. Tubes containing either 100 μL of buffer mixture (for total binding), 100 μL of buffer mixture plus 100 μL of 10^-4 M D(+)-butaclamol (for blanks, i.e. non-specific binding), or 100 μL of buffer mixture containing 10^-7, 10^-6 or 10^-5 M test compound were prepared. To each were added 100 μL of a solution of ^3 H-spiperone (New England Nuclear) in buffer mixture (2000 c.p.m. in the incubation mixture) and 800 μL of the striatal tissue suspension. The tubes were then diluted to 1 mL with buffer mixture, giving a final concentration of 10^-8, 10^-7 or 10^-6 M test compound and approximately 100 pM ^3 H-spiperone. The samples were incubated at 37° C. for 15 minutes, filtered in vacuo on glass fiber filters and counted by liquid scintillation spectrometry. […] All samples were run in duplicate.

Experiment [2] concerns Apomorphine-Induced Emesis. The experiment can be described thus: Antagonism of Apomorphine-Induced Emesis in Dogs. To be noted: Canis lupus familiaris, sc; s.c. 30 minutes prior to apomorphine 0.3 mg/kg; dog; read-out: Antagonism of Apomorphine-Induced Emesis in the Dog ED50. It is filed as in vivo, beagle dogs. As for the experimental part: Unfasted beagle dogs of both sexes were used as test subjects. Test compounds and apomorphine were each administered subcutaneously as aqueous solutions, with the test compound being administered 30 minutes prior to the administration of the apormorphine.
Apomorphine was administered at a dose of 0.3 mg/kg. […] All tests were run in at least two dogs.

The test system of a further experiment is Cisplatin-Induced Emesis. In words: Antagonism of Cisplatin-Induced Emesis in the Ferret. The experiment is classed as in vivo, Fitch ferrets. The settings on record: Mustela putorius, iv, 4 h; 3 mg/kg, i.v. × 2; read-out: Antagonism of Cisplatin-Induced Emesis in the Ferret, % Protection. An excerpt: The ventral and dorsal area of the neck is shaved and a 3 cm incision is made. The left jugular vein is exposed and ligated with a silk suture at the cephalic end. The indwelling catheter is constructed of Silastic tubing 18 cm in length (0.020 inch I.D.×0.037 inch O.D.) with a 2 cm polyethylene sleeve (0.045 inch I.D.×0.062 inch O.D.) filled with heparin (1000 units/ml) and sealed at the exposed end with a 23 gauge×1 inch needle crimped at both ends. A small cut is made in the jugular and the catheter inserted, allowing the free end to be delivered through a 13 gauge×5 cm trochar under the skin and attached to the nape of the neck with a silk suture. The ferrets are housed in individual cages and allowed 2-4 days recovery before testing. On the test day, the test compounds were administered i.v. […] The cisplatin solution was prepared by adding 70° C. physiological saline, stirring and sonicating until dissolved. The resulting solution (4 mg/ml) was maintained at 40° C. and administered i.v. ([…]) via the catheter. Following administration of cisplatin, the ferrets were observed continuously for four hours and emetic episodes recorded. Two or more emetic episodes within a one-minutes period was considered as a single episode. The ferrets were euthanized with T-61 i.v. at the termination of the experiment, and proper placement of the catheter was verified.

Experiment [3] deals with field-stimulated guinea pig ileum. In words: Gastrokinetic Activity: contraction of field-stimulated guinea pig ileum preparations. More on the design: species or system guinea pig (Hartley). To be noted: Cavia porcellus; for EC30: effective concentration30, read-out: EC30 (95% C.L.); for EC50: effective concentration50, read-out: EC50 (95% C.L.); for minimal effective concentration: read-out: Minimum Effective Concentration. The method, then:
This activity is considered to be correlated with gastrokinetic (prokinetic) activity in vivo, i.e. enhancement of gastric motility and gastric emptying.
Normal, male guinea pigs (Hartley; Charles River) weighing […] are sacrificed by cervical dislocation. The terminal portion of the ileum was removed after discarding a 10 cm segment nearest to the ileocecal junction. The strips, 3-4 cm in length, were mounted in a 20 ml organ bath containing Krebs physiological buffer solution. The buffer was bubbled with 95% O2 -5% CO2 and kept at 37° C. The resting tension was adjusted to 1.0 g, and the tissues were equilibrated without stimulation for 15 minutes. For electrical stimulation, a platinum wire (cathode) was threaded up through the lumen and another platinum wire (anode) was attached to the glass rod that suspended the muscle. Tissues were stimulated coaxially at 1.5 times the voltage necessary to produce maximum twitch height, with single pulses, 0.5 msec in duration, delivered once every 10 seconds. After the 15 minute equilibration period (without stimulation), the stimulator (Grass S88 Stimulator) was turned on and the tissues were allowed to stabilize for approximately 1 hour, or until the twitch height remained constant, with washes every 20 minutes.

SMILES strings stand for the structures. Counter-ions that a name gives are not always drawn.

Sequence of dopaminergic (D2) receptors (P61169 whole entry): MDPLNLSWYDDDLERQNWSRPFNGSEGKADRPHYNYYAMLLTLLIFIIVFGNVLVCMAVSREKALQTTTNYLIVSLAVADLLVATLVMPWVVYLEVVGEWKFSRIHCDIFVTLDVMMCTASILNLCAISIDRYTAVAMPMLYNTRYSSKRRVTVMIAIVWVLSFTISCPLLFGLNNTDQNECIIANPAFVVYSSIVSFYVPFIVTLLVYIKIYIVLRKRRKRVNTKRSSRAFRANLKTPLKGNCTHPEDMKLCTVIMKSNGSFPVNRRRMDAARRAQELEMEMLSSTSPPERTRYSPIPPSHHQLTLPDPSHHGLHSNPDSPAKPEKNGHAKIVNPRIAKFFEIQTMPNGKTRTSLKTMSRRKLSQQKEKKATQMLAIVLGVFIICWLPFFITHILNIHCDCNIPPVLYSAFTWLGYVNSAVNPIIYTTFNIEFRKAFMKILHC

The IC50 is the midpoint of a concentration-inhibition curve. Usually ED50 stands for the midpoint of the dose-response relation. The EC30 is the point of the concentration-response curve where the effect stands at 30%. The term EC50 denotes the midpoint of the concentration-response curve. For the molecule `CCN(CC)CCNC(=O)c1cc(Cl)c(N)cc1OCC(N)=O` [Example 16, 4-Amino-2-(2-amino-2-oxoethoxy)-5-chloro-N-[2-(diethylamino)ethyl]benzamideAcetate Monohydrate], in experiment [1], the 50% inhibitory concentration (IC50) was over 1000 nM. Further, the ED50 in experiment [2] was over 3 mg/kg. The inhibition in vivo at 3 mg/kg in the experiment with Cisplatin-Induced Emesis stood at 21%. Further, the activation at 100 µM in experiment [3] (at 100 μM, read-out: Average % Maximum Increase) came out at 72%. Besides, in experiment [3], the concentration for an effect of 30% (EC30) amounted to 500 nM, the EC50 is 3700 nM and the minimal effective concentration was found to be 0.03 µM.

`CCN(CC)CCNC(=O)c1cc(Cl)c(N)cc1OCC[S+](C)[O-]` (stereo not drawn) [Example 21, 4-Amino-5-chloro-N-[2-(diethylamino)ethyl]-2-[2-(methylsulfinyl)ethoxy]benzamide]: in experiment [1], the half-maximal inhibitory concentration (IC50) was over 1000 nM. The 50% effective dose (ED50) in experiment [2] was over 3 mg/kg. For the same molecule, the inhibition in vivo at 3 mg/kg in the experiment on Cisplatin-Induced Emesis was 49%. Further, the activation at 30 µM in experiment [3] (at 30 μM, read-out: Average % Maximum Increase) is 88%. For the same molecule, in experiment [3], the EC30 is 570 nM, the EC50 came to 2300 nM and the minimal effective concentration was determined as 0.1 µM.

For `CCN(CC)CCNC(=O)c1cc(Cl)c(N)cc1OCC(=O)NN.O.O.O` [Example 36, 4-Amino-5-chloro-N-[2-(diethylamino)ethyl]-2-(2-hydrazino-2-oxoethoxy)benzamide Trihydrate], the IC50 in experiment [1] is over 1000 nM. The ED50 in experiment [2] was over 3 mg/kg. Moreover, the inhibition in vivo at 3 mg/kg in the experiment with Cisplatin-Induced Emesis came out at 86%. Besides, the activation at 10 µM in experiment [3] (at 10 μM, read-out: Average % Maximum Increase) was 55%. In experiment [3], the EC30 stood at 500 nM, the half-maximal effective concentration (EC50) worked out at 4600 nM and the minimal effective concentration worked out at 0.1 µM.

As to `CCN(CC)CCNC(=O)c1cc(Cl)c(N)cc1OCC(=O)NNC(C)=O` [Example 37, 4-Amino-5-chloro-N-[2-(diethylamino)ethyl]-2-[2-(2-acetylhydrazino)-2-oxoethoxy]benzamide Acetate], the 50% inhibitory concentration (IC50) in experiment [1] is over 1000 nM. Moreover, the ED50 in experiment [2] was over 3 mg/kg. In addition, in the experiment on Cisplatin-Induced Emesis, the inhibition in vivo at 3 mg/kg amounted to 57%. The activation at 300 µM in experiment [3] (at 300 μM, read-out: Average % Maximum Increase) was determined as 83%. Moreover, in experiment [3], the EC30 was 720 nM and the half-maximal effective concentration (EC50) was found to be 6600 nM.

Turning to `CCN(CC)CCNC(=O)c1cc(Cl)c(N)cc1OCC1CNC(=O)O1` (stereo not drawn) [Example 44, 4-Amino-5-chloro-N[2-(diethylamino)ethyl]-2-(oxazolidin)-2-one-5-ylmethyl)oxybenzamide Fumarate], the half-inhibitory concentration (IC50) in experiment [1] was over 1000 nM. Further, in experiment [2], the median effective dose (ED50) is over 3 mg/kg. Besides, in the experiment with Cisplatin-Induced Emesis, the inhibition in vivo at 3 mg/kg worked out at 71%.

For the molecule `CCN(CC)CCNC(=O)c1cc(Cl)c(N)cc1OCCN` [Example 47, 4-Amino-2-(2-aminoethoxy)-5-chloro-N-[2-(diethylamino)ethyl]benzamide], in experiment [1], the IC50 is over 1000 nM. The 50% effective dose (ED50) in experiment [2] was over 3 mg/kg. In addition, the inhibition in vivo at 3 mg/kg in the experiment on Cisplatin-Induced Emesis is 8%.

On to `CCN(CC)CCNC(=O)c1cc(Cl)c(N)cc1OCCCSC` [Example 49, 4-Amino-5-chloro-N-[2-(diethylamino)ethyl]-2-[3-(methylthio)propoxy]benzamide], for which the half-maximal inhibitory concentration (IC50) in experiment [1] was over 1000 nM. Besides, the ED50 in experiment [2] was over 3 mg/kg. Further, the inhibition in vivo at 3 mg/kg with Cisplatin-Induced Emesis stood at 62%.

For `CCN(CC)CCNC(=O)c1cc(Cl)c(N)cc1OCCCl` [Example 53, 4-Amino-5-chloro-2-(2-chloroethoxy)-N-[2-(2-diethylamino)ethyl]benzamide], the IC50 in experiment [1] is over 1000 nM. In addition, the 50% effective dose (ED50) in experiment [2] is over 3 mg/kg. In addition, in the experiment on Cisplatin-Induced Emesis, the inhibition in vivo at 3 mg/kg was 91%.

`CCN(CC)CCNC(=O)c1cc(Cl)c(N)cc1OCC(=O)N(C)C` [Example 55]: in experiment [1], the IC50 is over 1000 nM. In experiment [2], the median effective dose (ED50) was over 3 mg/kg. Further, the inhibition in vivo at 3 mg/kg in the experiment on Cisplatin-Induced Emesis amounted to 66%.

For the molecule `CCN(CC)CCNC(=O)c1cc(Cl)c(N)cc1OCCOC(C)=O` [Example 57, 2-(2-Acetoxyethoxy)-4-amino-5-chloro-N-[2-(diethylamino)ethyl]-benzamide], the IC50 in experiment [1] is over 1000 nM. In addition, the 50% effective dose (ED50) in experiment [2] is over 3 mg/kg. Also, the inhibition in vivo at 3 mg/kg with Cisplatin-Induced Emesis amounted to 66%.

Values taken from patent US4820715A, “Anti-emetic quinuclidinyl benzamides” (Bristol-Myers Company, priority 1987, dated 1989).
